In PubChem BioAssay AID1963835 (Molecular Pharmacology Branch, DTP, NCI, 2024):

Test system: 699152-130-R-J1-PDC complex spheroid viability
Assay: Anticancer human tumor 699152-130-R-J1-PDC patient-derived pancreatic carcinoma cell line growth inhibition [POLQ]
Details: for IC50: curve of first compound; for viability, T/C: stronger effect = lower value
Description: Multicellular complex tumor spheroid response to Polymerase (POL) inhibitors (novobiocin, ART-558, RP6685) in combination with a variety of drugs and investigational agents in selected tumor cell lines
The POL inhibitors (novobiocin, ART-558, and RP6685) were evaluated both individually and in combination with standard of care and investigational anticancer small molecules within a complex spheroid model of solid tumors. . Complex spheroids include a stromal component modeled by human endothelial cells (HUVEC) and fibroblasts modeled by human mesenchymal stem cells (MSCs). The concentration ranges selected for each drug and investigational agent were based upon clinically achievable concentrations if the clinical Cmax of the agent was known.
Compounds. The drugs and investigational agents: novobiocin (NSC847541), ART-558 (NSC835418), RP-6685 (NSC848927), peposertib (NSC802822), ceralasertib (NSC780249), elimusertib (NSC800525), camonsertib (NSC841442), AZD-1390 (NSC803789), olaparib (NSC753686), talazoparib (NSC767125), rucaparib (NSC756644), sotorasib (NSC818433), MRTX-1133 (NSC836407), SN-38 (NSC673596), topotecan (NSC609699), epotoside (NSC141540), doxorubicin (NSC123127), gemcitabine (NSC613327), 5-fluorouracil (NSC19893), paclitaxel (NSC125973), vemurafenib (NSC761431), MSA-2 (NSC828583), SN-011 (NSC837082), adavosertib (NSC754352), prexasertib (NSC758257), carboplatin (NSC241240) and oxaliplatin (NSC266046), were obtained from the National Cancer Institute (NCI) Developmental Therapeutics Program Chemical Repository (21). The FDA-approved anticancer drug set is available from the Developmental Therapeutics Program at https://dtp.cancer.gov/organization/dscb/obtaining/. […] The stock solutions were prepared in dimethyl sulfoxide (DMSO, Sigma-Aldrich, St. Louis, MO, cat. D2650), except for the platinum compounds which were prepared in saline (Quality Biological, Gaithersburg, MD, cat. 114-055-101), at 800-fold the tested concentration and stored at -70 degrees C prior to their use. All drugs and investigational agents were tested over a range starting from a high concentration at or near the clinical Cmax and decreasing in half-log increments. If the clinical Cmax for an agent had not been determined, the highest concentration tested was 10 microM, except for SN-38, which was tested at a high concentration of 1 microM.
Cell Culture. All cells were maintained in an incubator at 37 degrees C and 5% CO2 with 95% humidity. The PDC lines were cultured according to standard operating procedures established by the NCI PDMR (https://pdmr.cancer.gov). Table 3 of the manuscript, lists the cell lines along with the number of the three cell types plated to form the mct-spheroids and media for tumor cell growth. After thawing, all PDC lines, except 997537-175-T-J1-PDC and 415267-285-R-J2-PDC, were cultured in Matrigel-coated flasks prepared with a working solution of 1X Ham's F-12 nutrient mix, without supplementation (Thermo Fisher Scientific, cat. 11765054), 100 U/mL penicillin-streptomycin (Thermo Fisher Scientific, cat. 15140122), and 2.5% Matrigel (Corning Inc., Corning, NY, cat. 354248) for the first three passages. The two PDC lines 997537-175-T-J1-PDC and 415267-285-R-J2-PDC were cultured on uncoated flasks. The 857933-349-R-J2-PDC line was cultured in 6C/Colon 1B media containing advanced DMEM/F-12 (Thermo Fisher Scientific, cat. 12634028), 10 mM HEPES (Thermo Fisher Scientific, cat. 15630080), 1X GlutaMAX supplement (Thermo Fisher Scientific, cat. 35050061), 0.1 mg/mL primocin (InvivoGen, San Diego, CA, cat. ant-pm-2), 10% defined fetal bovine serum, heat inactivated (HyClone Laboratories Inc., Logan, UT, cat. SH30070.03HI), 50% L-WRN conditioned media (ATCC, cat. CRL-3276), 1.25 mM N-Acetyl-L-cysteine (Sigma-Aldrich, cat. A9165), 10 mM nicotinamide (Sigma-Aldrich, cat. N0636), 1X B-27 supplement (Thermo Fisher Scientific, cat. 17504044), 1X N-2 supplement (Thermo Fisher Scientific, cat. […]

[1] = second compound 0.0316 µM, first compound 0.0316 µM
[2] = second compound 0.0316 µM, first compound 0.1 µM
[3] = second compound 0.0316 µM, first compound 0.316 µM
[4] = second compound 0.0316 µM, first compound 1 µM
[5] = second compound 0.0316 µM, first compound 3.16 µM
[6] = second compound 0.0316 µM, first compound 10 µM
[7] = second compound 0.1 µM, first compound 0.0316 µM
[8] = second compound 0.1 µM, first compound 0.1 µM
[9] = second compound 0.1 µM, first compound 0.316 µM
[10] = second compound 0.1 µM, first compound 1 µM
[11] = second compound 0.1 µM, first compound 3.16 µM
[12] = second compound 0.1 µM, first compound 10 µM
[13] = second compound 0.316 µM, first compound 0.0316 µM
[14] = second compound 0.316 µM, first compound 0.1 µM
[15] = second compound 0.316 µM, first compound 0.316 µM
[16] = second compound 0.316 µM, first compound 1 µM
[17] = second compound 0.316 µM, first compound 3.16 µM
[18] = second compound 0.316 µM, first compound 10 µM
[19] = second compound 1 µM, first compound 0.0316 µM
[20] = second compound 1 µM, first compound 0.1 µM
[21] = second compound 1 µM, first compound 0.316 µM
[22] = second compound 1 µM, first compound 1 µM
[23] = second compound 1 µM, first compound 3.16 µM
[24] = second compound 1 µM, first compound 10 µM
[25] = second compound 3.16 µM, first compound 0.0316 µM
[26] = second compound 3.16 µM, first compound 0.1 µM
[27] = second compound 3.16 µM, first compound 0.316 µM
[28] = second compound 3.16 µM, first compound 1 µM
[29] = second compound 3.16 µM, first compound 3.16 µM
[30] = second compound 3.16 µM, first compound 10 µM
[31] = second compound 10 µM, first compound 0.0316 µM
[32] = second compound 10 µM, first compound 0.1 µM
[33] = second compound 10 µM, first compound 0.316 µM
[34] = second compound 10 µM, first compound 1 µM
[35] = second compound 10 µM, first compound 3.16 µM
[36] = second compound 10 µM, first compound 10 µM
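Also: spheroids exposed to agents for 7 days before viability reading.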
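For viability, T/C in this document: percent of DMSO vehicle control viability so 100% = vehicle and 0% = no viable signal.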

CC(=O)O[C@H]1C(=O)[C@@]2(C)[C@H]([C@H](OC(=O)c3ccccc3)[C@]3(O)C[C@H](OC(=O)[C@H](O)[C@@H](NC(=O)c4ccccc4)c4ccccc4)C(C)=C1C3(C)C)[C@]1(OC(C)=O)CO[C@@H]1C[C@@H]2O + COC1C(OC(N)=O)C(O)C(Oc2ccc3c(O)c(NC(=O)c4ccc(O)c(CC=C(C)C)c4)c(=O)oc3c2C)OC1(C)C
IC50 (second compound 0.0316 µM): > 3 µM
IC50 (second compound 0.1 µM): > 3 µM
IC50 (second compound 0.316 µM): > 3 µM
IC50 (second compound 1 µM): > 3 µM
IC50 (second compound 3.16 µM): > 3 µM
IC50 (second compound 10 µM): > 3 µM
viability, T/C (second compound 0.0316 µM, first compound 0.00949 µM): 81.5%
viability, T/C (second compound 0.0316 µM, first compound 0.03 µM): 57%
viability, T/C (second compound 0.0316 µM, first compound 0.0949 µM): 57.1%
viability, T/C (second compound 0.0316 µM, first compound 0.3 µM): 60.7%
viability, T/C (second compound 0.0316 µM, first compound 0.949 µM): 70.2%
viability, T/C (second compound 0.0316 µM, first compound 3 µM): 63%
viability, T/C (second compound 0.1 µM, first compound 0.00949 µM): 87.9%
viability, T/C (second compound 0.1 µM, first compound 0.03 µM): 60.2%
viability, T/C (second compound 0.1 µM, first compound 0.0949 µM): 47.7%
viability, T/C (second compound 0.1 µM, first compound 0.3 µM): 62.5%
viability, T/C (second compound 0.1 µM, first compound 0.949 µM): 62.4%
viability, T/C (second compound 0.1 µM, first compound 3 µM): 74.5%
viability, T/C (second compound 0.316 µM, first compound 0.00949 µM): 90%
viability, T/C (second compound 0.316 µM, first compound 0.03 µM): 61.4%
viability, T/C (second compound 0.316 µM, first compound 0.0949 µM): 46.9%
viability, T/C (second compound 0.316 µM, first compound 0.3 µM): 53.2%
viability, T/C (second compound 0.316 µM, first compound 0.949 µM): 57.3%
viability, T/C (second compound 0.316 µM, first compound 3 µM): 58.1%
viability, T/C (second compound 1 µM, first compound 0.00949 µM): 77.2%
viability, T/C (second compound 1 µM, first compound 0.03 µM): 67.8%
viability, T/C (second compound 1 µM, first compound 0.0949 µM): 52.8%
viability, T/C (second compound 1 µM, first compound 0.3 µM): 57.7%
viability, T/C (second compound 1 µM, first compound 0.949 µM): 66%
viability, T/C (second compound 1 µM, first compound 3 µM): 68.7%
viability, T/C (second compound 3.16 µM, first compound 0.00949 µM): 91.9%
viability, T/C (second compound 3.16 µM, first compound 0.03 µM): 68.9%
viability, T/C (second compound 3.16 µM, first compound 0.0949 µM): 62.4%
viability, T/C (second compound 3.16 µM, first compound 0.3 µM): 55.5%
viability, T/C (second compound 3.16 µM, first compound 0.949 µM): 59.6%
viability, T/C (second compound 3.16 µM, first compound 3 µM): 73.1%
viability, T/C (second compound 10 µM, first compound 0.00949 µM): 84%
viability, T/C (second compound 10 µM, first compound 0.03 µM): 60.6%
viability, T/C (second compound 10 µM, first compound 0.0949 µM): 60.6%
viability, T/C (second compound 10 µM, first compound 0.3 µM): 61.7%
viability, T/C (second compound 10 µM, first compound 0.949 µM): 73.1%
viability, T/C (second compound 10 µM, first compound 3 µM): 67.9%

COc1cccc2c1C(=O)c1c(O)c3c(c(O)c1C2=O)CC(O)(C(=O)CO)CC3OC1CC(N)C(O)C(C)O1 (stereo unspecified) + COC1C(OC(N)=O)C(O)C(Oc2ccc3c(O)c(NC(=O)c4ccc(O)c(CC=C(C)C)c4)c(=O)oc3c2C)OC1(C)C
IC50 (second compound 0.0316 µM): 0.284 µM
IC50 (second compound 0.1 µM): 0.235 µM
IC50 (second compound 0.316 µM): 0.244 µM
IC50 (second compound 1 µM): 0.225 µM
IC50 (second compound 3.16 µM): 0.3 µM
IC50 (second compound 10 µM): 0.304 µM
viability, T/C [1]: 82.1%
viability, T/C [2]: 92.9%
viability, T/C [3]: 43.7%
viability, T/C [4]: 24.3%
viability, T/C [5]: 3.71%
viability, T/C [6]: 9.4%
viability, T/C [7]: 79%
viability, T/C [8]: 86.8%
viability, T/C [9]: 38.5%
viability, T/C [10]: 27%
viability, T/C [11]: 3.59%
viability, T/C [12]: 13.3%
viability, T/C [13]: 66.8%
viability, T/C [14]: 97.2%
viability, T/C [15]: 40.7%
viability, T/C [16]: 26.1%
viability, T/C [17]: 2.4%
viability, T/C [18]: 10.4%
viability, T/C [19]: 69.7%
viability, T/C [20]: 96.7%
viability, T/C [21]: 35.9%
viability, T/C [22]: 27.5%
viability, T/C [23]: 2.69%
viability, T/C [24]: 12.1%
viability, T/C [25]: 73%
viability, T/C [26]: 88.1%
viability, T/C [27]: 41.5%
viability, T/C [28]: 28%
viability, T/C [29]: 3.59%
viability, T/C [30]: 10.6%
viability, T/C [31]: 76%
viability, T/C [32]: 95.2%
viability, T/C [33]: 48.8%
viability, T/C [34]: 21.6%
viability, T/C [35]: 6.39%
viability, T/C [36]: 13.2%

O=c1[nH]cc(F)c(=O)[nH]1 + COC1C(OC(N)=O)C(O)C(Oc2ccc3c(O)c(NC(=O)c4ccc(O)c(CC=C(C)C)c4)c(=O)oc3c2C)OC1(C)C
IC50 (second compound 0.0316 µM): > 10 µM
IC50 (second compound 0.1 µM): > 10 µM
IC50 (second compound 0.316 µM): > 10 µM
IC50 (second compound 1 µM): > 10 µM
IC50 (second compound 3.16 µM): > 10 µM
IC50 (second compound 10 µM): > 10 µM
viability, T/C [1]: 101%
viability, T/C [2]: 92.8%
viability, T/C [3]: 108%
viability, T/C [4]: 108%
viability, T/C [5]: 91.3%
viability, T/C [6]: 75.4%
viability, T/C [7]: 109%
viability, T/C [8]: 113%
viability, T/C [9]: 88.5%
viability, T/C [10]: 97.2%
viability, T/C [11]: 93.6%
viability, T/C [12]: 68.7%
viability, T/C [13]: 92.6%
viability, T/C [14]: 99.6%
viability, T/C [15]: 99.8%
viability, T/C [16]: 95.4%
viability, T/C [17]: 86%
viability, T/C [18]: 65.9%
viability, T/C [19]: 104%
viability, T/C [20]: 101%
viability, T/C [21]: 91%
viability, T/C [22]: 105%
viability, T/C [23]: 98.5%
viability, T/C [24]: 76.8%
viability, T/C [25]: 102%
viability, T/C [26]: 93.2%
viability, T/C [27]: 91.2%
viability, T/C [28]: 88.4%
viability, T/C [29]: 92.5%
viability, T/C [30]: 72.8%
viability, T/C [31]: 106%
viability, T/C [32]: 108%
viability, T/C [33]: 101%
viability, T/C [34]: 95.9%
viability, T/C [35]: 88.2%
viability, T/C [36]: 73%
